Read-outs that look alike come from different tables or passages of the source.
Experiments:
NDV = assay: microbe, parasite or virus in culture; assay type: cell-based, Newcastle disease virus; conditions: for IC50: read-out: IC50 ± STD (nM) (N = x) NDV
HSV = assay: Inhibition of HSV infection (Table 1); assay type: cell-based, herpes simplex virus; conditions: for IC50: read-out: IC50 ± STD (nM) (N = x) HSV
[1] = Absorption spectra of compounds in DMSO; assay type: physicochemical; conditions: for Abs Max: 100 μM in DMSO; for Relative integrated area from 400 to 700 nm: area under absorption curve, JL001 = 100
HIV = assay: Inhibition of HIV infection (Table 1); assay type: cell-based, human immunodeficiency virus
[2] = tested on: cytomegalovirus (CMV, herpesvirus); assay type: cell-based
[3] = Clinical observations after single dose in PK study; conditions: for toxicity in vivo compared to the rhodanine derivatives: gavage, intravenous or intraperitoneal administration in mice
lipid-enveloped viruses [4] = assay: organism not typed; assay type: cell-based; conditions: read-out: IC50 inhibition of infection of lipid-enveloped viruses
[5] = Pharmacokinetic profile after single po, ip or iv administration; conditions: for bioavailability: female, Balb/c, mouse, plasma
[6] = tested on: Semliki forest virus (SFV, alphavirus); assay type: cell-based
Hela cells = assay: Cytotoxicity by MTT assay in dark or under light; assay type: cell-based; conditions: Homo sapiens, exposed for 1 hour to light, MTT 24 hours later, read-out: concentration triggering death of 50% of treated cells
[7] = KT rate constant (Table 1); assay type: physicochemical; conditions: values are KT × 10^−7
Toxoplasma gondii = Toxoplasma gondii attachment and invasion of HFFs; assay type: cell-based; conditions: 10 μM, normalized to DMSO control, preliminary
HIV (IIIB) = assay: HIV inactivation in packed red blood cells, TZM-BL luciferase readout; assay type: cell-based, human immunodeficiency virus; conditions: 100 μM, 1 h white light, hematocrit 80%
lipid-enveloped viruses [8] = conditions: reference [1], cited from earlier work
[9] = number of experiments in parentheses
[10] = Human immunodeficiency virus 1, number of experiments in parentheses, read-out: IC50 ± STD (nM) (N = x) HIV

SMILES: CCN1C(=O)S/C(=C\c2ccc(-c3ccccc3)o2)C1=O [JL025, reference compound]
- IC50 ± STD (nM) (N = x) NDV (NDV): Not active (2)
- IC50 ± STD (nM) (N = x) HSV (HSV; [9]): Not active (1)
- Abs Max [1]: 405 nm
- IC50 ± STD (nM) (N = x) HIV (HIV; [9]): Not active (4)

SMILES: CCN1C(=O)/C(=C/c2ccc(-c3ccccc3)o2)OC1=S [JL101, (Z)-3-ethyl-5-((5-phenylfuran-2-yl)methylene)-2-thioxooxazolidine-4-one]
- IC50 (NDV; avian paramyxovirus 1, Vero): > 1000 nM
- IC50 (HIV; [10]): > 1000 nM

SMILES: CCN1C(=S)O/C(=C\c2ccc(-c3ccccc3)o2)C1=S [JL102, (Z)-3-ethyl-5-((5-phenylfuran-2-yl)methylene)oxazolidine-2,4-dithione]
- EC50 fold lower than LJ001's (NDV): about 10 fold
- inhibition of CMV infection [2]: inhibit the infection
- clinical observations ([3]; 10 mg/kg ip single dose): appeared normal
- toxicity in vivo compared to the rhodanine derivatives [3]: less toxicity
- IC50 (lipid-enveloped viruses [4]): ~40 nM
- bioavailability ([5]; ip, 10 mg/kg): ~50%
- bioavailability ([5]; po, 100 mg/kg): 3.1 to 105%
- inhibition of SFV infection [6]: inhibit the infection
- EC50 (Hela cells): ~400 nM

SMILES: CCN1C(=S)O/C(=C\c2ccc(-c3ccccc3OC)o2)C1=S [JL103, (Z)-3-ethyl-5-((5-(2-methoxyphenyl)furan-2-yl)methylene)oxazolidine-2,4-dithione]
- EC50 fold lower than compound 1's (NDV): about 10 fold
- EC90 (NDV; avian paramyxovirus 1, Vero, read-out: EC90 antiviral activity on NDV): ~15 nM
- IC50 (NDV; avian paramyxovirus 1, Vero): 7 nM
- KT × 10^−7 [7]: 7.8 ± 0.6 M^−1s^−1
- inhibition of CMV infection [2]: inhibit the infection
- IC50 (HSV; [9]): 2.3 ± 2.7 nM
- absorption peak [1]: about 500 nm
- Abs Max [1]: 516 nm
- Relative integrated area from 400 to 700 nm [1]: 153
- light absorbed relative to LJ001 (integrated area 400-700 nm) ([1]; times more than LJ001): 1.53 times
- clinical observations ([3]; 10 mg/kg ip single dose): appeared normal
- toxicity in vivo compared to the rhodanine derivatives [3]: less toxicity
- IC50 (lipid-enveloped viruses [4]): ~5 nM
- inhibition of parasite attachment and invasion (Toxoplasma gondii): inhibited parasite attachment and invasion
- IC50 (HIV; [10]): 3 nM
- bioavailability ([5]; ip, 10 mg/kg): ~50%
- bioavailability ([5]; po, 100 mg/kg): 3.1 to 105%
- inhibition of SFV infection [6]: inhibit the infection

SMILES: CCN1C(=O)/C(=C/c2ccc(-c3ccccc3)o2)NC1=S [JL104, (Z)-3-ethyl-5-((5-phenylfuran-2-yl)methylene)-2-thioxoimidazolidin-4-one]
- IC50 (NDV; avian paramyxovirus 1, Vero): > 500000 nM
- IC50 (HSV; [9]): > 500000 nM
- IC50 ± STD (nM) (N = x) HIV (HIV; [9]): Not active

SMILES: CCN1C(=S)N/C(=C\c2ccc(-c3ccccc3)o2)C1=S [JL105, (Z)-3-ethyl-5-((5-phenylfuran-2-yl)methylene)imidazolidine-2,4-dithione]
- IC50 (NDV; avian paramyxovirus 1, Vero): > 100000 nM
- Abs Max [1]: 521 nm

SMILES: CCN1C(=S)OC(Cc2ccc(-c3ccccc3)o2)C1=S (stereo not shown) [JL107]
- IC50 (NDV; avian paramyxovirus 1, Vero): 928 nM
- inhibition of parasite attachment and invasion (Toxoplasma gondii): most potent inhibition
- inhibition of parasite attachment and invasion (Toxoplasma gondii; listed as 107): inhibited parasite attachment and invasion

SMILES: CCN1C(=S)O/C(=C\c2ccc(-c3c(OC)cccc3OC)o2)C1=S [JL111, (Z)-3-Ethyl-5-(5-(2,6-dimethoxyphenyl)-furan-2-ylmethylene)oxazolidine-2,4-dithione]
- IC50 (NDV; avian paramyxovirus 1, Vero): 12 nM
- Abs Max [1]: 499 nm

SMILES: CCN1C(=S)O/C(=C\c2cc3ccccc3o2)C1=S [JL113, (Z)-5-(benzofuran-2-ylmethylene)-3-ethyloxazolidine-2,4-dithione]
- IC50 (NDV; avian paramyxovirus 1, Vero): 865 nM

SMILES: CCN1C(=S)O/C(=C\c2ccc(-c3cccc(OC)c3)o2)C1=S [JL117, (Z)-3-Ethyl-5-(5-(3-methoxyphenyl)-furan-2-ylmethylene)oxazolidine-2,4-dithione]
- IC50 (NDV; avian paramyxovirus 1, Vero): 5 nM
- IC50 (HSV; [9]): 20 nM
- Abs Max [1]: 504 nm

SMILES: CCN1C(=S)O/C(=C\c2ccc(-c3ccc(OC)cc3)n2C)C1=S [JL119, (Z)-3-Ethyl-5-((5-(4-methoxyphenyl)-1-methyl-1H-pyrrole-2-yl)methylene)oxazolidine-2,4-dithione]
- IC50 (NDV; avian paramyxovirus 1, Vero): 6 nM
- Abs Max [1]: 551 nm

SMILES: CCN1C(=O)O/C(=C\c2ccc(-c3ccccc3)o2)C1=O [JL121, (Z)-3-ethyl-5-((5-phenylfuran-2-yl)methylene)oxazolidine-2,4-dione]
- IC50 (NDV; avian paramyxovirus 1, Vero): > 500000 nM
- KT × 10^−7 [7]: 2.5 ± 0.2 M^−1s^−1
- IC50 ± STD (nM) (N = x) HSV (HSV; [9]): Not active (1)

SMILES: CCN1C(=S)O/C(=C\c2ccc(-c3c(OC)cc(OC)cc3OC)o2)C1=S [JL122, (Z)-3-Ethyl-5-(5-(2,4,6-tiimethoxyphenyl)-furan-2-ylmethylene)oxazolidine-2,4-dithione]
- IC50 (NDV; avian paramyxovirus 1, Vero): 1 nM
- IC50 (HSV; [9]): 3 ± 1 nM
- Abs Max [1]: 547 nm
- HIV inactivation in packed RBC (luciferase activity, RLU) (HIV (IIIB)): dramatically decrease the luciferase activity to near-background levels

SMILES: CCN1C(=S)O/C(=C\c2ccc(-c3ccc(N(C)C)cc3)n2C)C1=S [JL123]
- IC50 (NDV; avian paramyxovirus 1, Vero): 49 nM
- IC50 (HSV; [9]): 75 ± 45 nM
- Abs Max [1]: 593 nm

SMILES: C=CCN1C(=O)/C(=C/c2ccc(-c3ccccc3)o2)SC1=S [LJ001, reference compound]
- IC50 (NDV; avian paramyxovirus 1, Vero): 207 nM
- KT × 10^−7 [7]: 1.0 ± 0.1 M^−1s^−1
- IC50 (HSV): 35 ± 48 nM
- absorption peak [1]: about 440 nm
- Abs Max [1]: 457 nm
- Relative integrated area from 400 to 700 nm [1]: 100
- clinical observations ([3]; 5 mg/kg ip single dose): appeared normal
- clinical observations ([3]; 10 mg/kg ip single dose): 2 were sacrificed in moribund condition and 1 was found dead
- HIV inactivation in packed RBC (luciferase activity, RLU) (HIV (IIIB)): unable to inactivate HIV
- inhibition of parasite attachment and invasion (Toxoplasma gondii): highly effective
- IC50 (HIV; Human immunodeficiency virus 1, read-out: IC50 ± STD (nM) (N = x) HIV): 183 ± 272 nM
- IC95 viral infection common for all viruses tested (lipid-enveloped viruses [8]): ~10000 nM
- IC50 (lipid-enveloped viruses [8]; read-out: IC50 viral infection common for all viruses tested): ~1000 nM
- exposure ([5]; 10 mg/kg iv, 5 mg/kg ip, 10 and 100 mg/kg po): minimal exposure
- elimination ([5]; mice, single dose): ~700 mL/min/kg
- half-life ([5]; mice, single dose): 12 min

SMILES: Cc1c(C)c2c(c(C)c1O)CC[C@@](C)(CCC[C@H](C)CCC[C@H](C)CCCC(C)C)O2 [alpha-tocopherol, reference compound]
- effect of antioxidant on antiviral activity of JL103 (NDV): blocks the antiviral activity
